Measurements from patent publication US4687843A, “Esterified propoxylated glucose compositions” (Amerchol Corporation, priority 1986, dated 1987).

Experiments:
rabbits (eye) = conditions: rabbit, in vivo
rabbits (dermal) = conditions: rabbit, in vivo
[1] = in vivo

Draize test score (rabbits (eye)): negligible | Comedogenic Assay [1]: Non-comedogenic
Substance: PPG-20 Methyl Glucose Ether Distearate
Eye irritation (rabbits (eye)): Practically non-irritating | Primary dermal irritant (rabbits (dermal)): not a primary dermal irritant | Primary dermal irritation (rabbits (dermal)): Not a primary dermal irritant
